# Assay results from PMC10714400, “Antimicrobial Peptide–Peptoid Hybrids with and without Membrane Disruption” (ACS Infectious Diseases, 2023).
# Where a SMILES comes first, the peptide text is derived from it. [ ]: non-standard residue; d: D form. Nleu = CC(C)CNCC(=O)O; Nlys = NCCCCNCC(=O)O
# How the values were obtained:
# [1] = tested on: P. aeruginosa PAO1; experiment: Transmission electron microscopy (TEM); format: cell-based, Pseudomonas aeruginosa; settings: P. aeruginosa PAO1, 10 × MIC, […] MH at pH 8.5, 2 h at 37 °C
# Protocol: Scale bars are 500 nm and 1 μm. Red arrows: membrane perturbations. Blue arrows: intracellular aggregation. Yellow arrows: empty area within the cell.
# (§1) Just before the samples were further prepared for the microscopy, surviving bacteria were quantified by plating 10-fold dilutions of samples in sterilized normal saline (NaCl 0.9%) on LB agar plates. […] The assay was performed in triplicate. Each bacteria sample was centrifuged at 12,000 rpm for 3 min, and the supernatant was discarded. The samples were then further processed and imaged using our previously described protocol.[64]
# [2] = tested on: P. aeruginosa PAO1; experiment: Bacterial count after treatment, before TEM sample preparation; format: cell-based, Pseudomonas aeruginosa; settings: P. aeruginosa PAO1, […] MH pH 8.5, 10x MIC
# Protocol: as §1
# 8. Transmission electron microscopy (TEM)
# Table S4: Bacterial counts, 2 hours after treatment, before TEM sample preparation. Data represents triplicates.
# Bacteria count after treatment at 10x MIC and 2 h of incubation at 37 °C
# Control (non-treated cells) 1 × 10^8 CFU (100)
Compound,"TEM micrographs, changes in treated bacteria [1]",Bacteria count after treatment at 10x MIC and 2 h of incubation at 37 °C (% of control) [2]
"CC(C)C[C@H](NC(=O)CN(CC(C)C)C(=O)[C@H](CC(C)C)NC(=O)CN(CCCCN)C(=O)[C@H](CC(C)C)NC(=O)CN(CC(C)C)C(=O)[C@H](CCCCN)NC(=O)CN(CC(C)C)C(=O)[C@H](CC(C)C)NC(=O)CN(CCCCN)C(=O)[C@@H](N)CCCCN)C(N)=O [EB9, KkLlKlLkLlL] (H-K[Nlys]L[Nleu]K[Nleu]L[Nlys]L[Nleu]L-NH2)",aggregation of intracellular components as the major effect,0.01 % of control
"H-KKLLKLLKLLL-NH2 [ln65, reference compound]",strong membrane-disruptive activity,0.01 % of control
